Where “and” joins values, the source holds several entries; their conditions need not be identical. Equal values may be shown once. Inconclusive results and toxic doses are left out. Cut-off read from the data, not from the text of the source: active = T/C of 150% or more; inactive = T/C below 125%.
Tested on: L1210 leukemia ip in BDF1 mice, survival T/C
Test: NCI In Vivo Anticancer Drug Screen. Data for tumor model L1210 Leukemia (intraperitoneal) in B6D2F1 (BDF1) mice
Conditions: endpoint: mean survival time, higher = longer survival
Summary of the method: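 Ratio derived from survival: compound-dosed mice over vehicle-dosed mice, all bearing a transplantable tumor.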

[1] = dose: 100.0 mg/kg/injection, schedule: Q01DX009 (ip), vehicle: saline
[2] = dose: 100.0 mg/kg/injection, schedule: Q04DX003 (ip), vehicle: saline
[3] = dose: 200.0 mg/kg/injection, schedule: Q01DX009 (ip), vehicle: saline
[4] = dose: 200.0 mg/kg/injection, schedule: Q04DX003 (ip), vehicle: saline
[5] = dose: 400.0 mg/kg/injection, schedule: Q04DX003 (ip), vehicle: saline
[6] = dose: 100.0 mg/kg/injection, schedule: Q01DX009 (ip), vehicle: saline with Tween-80
[7] = dose: 100.0 mg/kg/injection, schedule: Q04DX002 (ip), vehicle: saline with Tween-80
[8] = dose: 200.0 mg/kg/injection, schedule: Q01DX009 (ip), vehicle: saline with Tween-80
[9] = dose: 200.0 mg/kg/injection, schedule: Q04DX002 (ip), vehicle: saline with Tween-80
[10] = dose: 400.0 mg/kg/injection, schedule: Q01DX009 (ip), vehicle: saline with Tween-80
[11] = dose: 400.0 mg/kg/injection, schedule: Q04DX002 (ip), vehicle: saline with Tween-80
[12] = dose: 100.0 mg/kg/injection, schedule: Q01DX001 (ip), vehicle: other
[13] = dose: 200.0 mg/kg/injection, schedule: Q01DX001 (ip), vehicle: other
[14] = dose: 100.0 mg/kg/injection, schedule: Q01DX001 (ip), vehicle: saline
[15] = dose: 200.0 mg/kg/injection, schedule: Q01DX001 (ip), vehicle: saline
[16] = dose: 400.0 mg/kg/injection, schedule: Q01DX001 (ip), vehicle: saline
[17] = dose: 75.0 mg/kg/injection, schedule: Q01DX001 (ip), vehicle: saline
[18] = dose: 150.0 mg/kg/injection, schedule: Q01DX001 (ip), vehicle: saline
[19] = dose: 100.0 mg/kg/injection, schedule: Q01DX001 (ip), vehicle: carboxymethylcellulose (CMC)
[20] = dose: 200.0 mg/kg/injection, schedule: Q01DX001 (ip), vehicle: carboxymethylcellulose (CMC)
[21] = dose: 400.0 mg/kg/injection, schedule: Q01DX001 (ip), vehicle: carboxymethylcellulose (CMC)
[22] = dose: 100.0 mg/kg/injection, schedule: Q04DX002 (ip), vehicle: Klucel (hydroxypropylcellulose) (HPC)
[23] = dose: 200.0 mg/kg/injection, schedule: Q04DX002 (ip), vehicle: Klucel (hydroxypropylcellulose) (HPC)
[24] = dose: 400.0 mg/kg/injection, schedule: Q04DX002 (ip), vehicle: Klucel (hydroxypropylcellulose) (HPC)
[25] = dose: 100.0 mg/kg/injection, schedule: Q04DX003 (ip), vehicle: saline with Tween-80
[26] = dose: 200.0 mg/kg/injection, schedule: Q04DX003 (ip), vehicle: saline with Tween-80
[27] = dose: 400.0 mg/kg/injection, schedule: Q04DX003 (ip), vehicle: saline with Tween-80

Measured: T/C

COC(=O)c1cc2ccncc2c2sc3ccccc3c12
inactive: [1] 97 % of control | [2] 90 % of control | [3] 93 % of control | [4] 92 % of control | dose: 400.0 mg/kg/injection, schedule: Q01DX009 (ip), vehicle: saline 95 % of control | [5] 90 % of control

COc1ccc(OC(=O)Nc2ccc(C)cc2Cl)cc1
inactive: [6] 96 % of control and 104 % of control | [7] 103 % of control and 104 % of control | [8] 97 % of control and 105 % of control | [9] 100 % of control and 107 % of control | [10] 105 % of control and 108 % of control | [11] 96 % of control and 106 % of control

COC(=O)C(C(=O)OC)C(Br)C(Br)C(Br)c1ccccc1 (centres undefined)
inactive: dose: 75.0 mg/kg/injection, schedule: Q01DX001 (ip), vehicle: other 91 % of control | dose: 150.0 mg/kg/injection, schedule: Q01DX001 (ip), vehicle: other 94 % of control | dose: 300.0 mg/kg/injection, schedule: Q01DX001 (ip), vehicle: other 96 % of control

CCSSCC(N)C(=O)O (centres undefined)
inactive: [12] 94 % of control | [13] 103 % of control | dose: 400.0 mg/kg/injection, schedule: Q01DX001 (ip), vehicle: other 103 % of control

O=C(CCl)N1CCN(C(=O)CCl)c2ccccc21
inactive: [14] 94 % of control | [15] 94 % of control | [16] 97 % of control

N#C/C(=C(/C#N)c1ccccc1)c1ccccc1
inactive: dose: 100.0 mg/kg/injection, schedule: Q01DX001 (ip), vehicle: saline with Tween-80 95 % of control | dose: 200.0 mg/kg/injection, schedule: Q01DX001 (ip), vehicle: saline with Tween-80 93 % of control | dose: 400.0 mg/kg/injection, schedule: Q01DX001 (ip), vehicle: saline with Tween-80 91 % of control

O=P1(c2ccccc2)C=C(Cl)CC1 (centres undefined)
inactive: [17] 96 % of control | [18] 107 % of control

C(=N\N1CCN(/N=C/c2cccc3ccccc23)CC1)/c1cccc2ccccc12
inactive: [19] 93 % of control | [20] 90 % of control | [21] 88 % of control

COC(=O)C(=O)CC(=O)c1cccc([N+](=O)[O-])c1
inactive: [22] 103 % of control | [23] 95 % of control | [24] 95 % of control

Cc1ccc(C(=O)c2ccccc2C(=O)O)cc1N
inactive: [6] 105 % of control | [25] 99 % of control | [8] 97 % of control | [26] 99 % of control | [10] 106 % of control | [27] 97 % of control

COc1ccc(CCN(C)C(C)C2C3CC4CC(C3)CC2C4)cc1OC (centres undefined)
inactive: [2] 101 % of control | [4] 94 % of control

O=C1OCCC12CCCCC21OCCO1 (centres undefined)
inactive: [14] 101 % of control | [15] 104 % of control | [16] 98 % of control

CCP(=S)(CP(=S)(c1ccccc1)c1ccccc1)c1ccccc1 (centres undefined)
inactive: dose: 100.0 mg/kg/injection, schedule: Q04DX002 (sc), vehicle: olive oil, sesame oil, peanut oil 104 % of control | dose: 200.0 mg/kg/injection, schedule: Q04DX002 (sc), vehicle: olive oil, sesame oil, peanut oil 104 % of control | dose: 400.0 mg/kg/injection, schedule: Q04DX002 (sc), vehicle: olive oil, sesame oil, peanut oil 104 % of control

O=C(O)c1ccc(Cl)nc1
inactive: dose: 50.0 mg/kg/injection, schedule: Q01DX001 (ip), vehicle: carboxymethylcellulose (CMC) 97 % of control | [19] 94 % of control | [25] 104 % of control | [20] 92 % of control | [26] 103 % of control | [21] 94 % of control | [27] 104 % of control

CCCCCCOc1ccc(C=Nc2ccc(C(=O)OCC)cc2)cc1
inactive: dose: 50.0 mg/kg/injection, schedule: Q01DX009 (ip), vehicle: Klucel (hydroxypropylcellulose) (HPC) 96 % of control | dose: 100.0 mg/kg/injection, schedule: Q01DX009 (ip), vehicle: Klucel (hydroxypropylcellulose) (HPC) 97 % of control | dose: 200.0 mg/kg/injection, schedule: Q01DX009 (ip), vehicle: Klucel (hydroxypropylcellulose) (HPC) 97 % of control

NNc1ccc(S(=O)(=O)C(F)(F)C(F)Cl)cc1 (centres undefined)
inactive: dose: 100.0 mg/kg/injection, schedule: Q01DX009 (ip), vehicle: gum acacia 105 % of control | dose: 100.0 mg/kg/injection, schedule: Q04DX003 (ip), vehicle: gum acacia 101 % of control | dose: 200.0 mg/kg/injection, schedule: Q01DX009 (ip), vehicle: gum acacia 100 % of control | dose: 200.0 mg/kg/injection, schedule: Q04DX003 (ip), vehicle: gum acacia 96 % of control | dose: 400.0 mg/kg/injection, schedule: Q04DX003 (ip), vehicle: gum acacia 96 % of control

CC1(N)COP(=O)(NC2CCCC2)OC1 (centres undefined)
inactive: [14] 100 % of control | [15] 105 % of control | [16] 91 % of control

O=[N+]([O-])c1ccc(C=Nc2ccccc2)s1
inactive: dose: 100.0 mg/kg/injection, schedule: Q04DX003 (ip), vehicle: Klucel (hydroxypropylcellulose) (HPC) 98 % of control | dose: 200.0 mg/kg/injection, schedule: Q04DX003 (ip), vehicle: Klucel (hydroxypropylcellulose) (HPC) 93 % of control

Cc1ccc(NCC2(/N=C/c3ccccc3)OC(CO)C(O)C2O)cc1 (centres undefined)
inactive: [22] 97 % of control | [23] 102 % of control | [24] 102 % of control

Cc1ccc2[nH]c3ccccc3c(=O)c2c1
inactive: [17] 93 % of control | [18] 91 % of control | dose: 300.0 mg/kg/injection, schedule: Q01DX001 (ip), vehicle: saline 90 % of control

BrCC(CBr)(CBr)CBr
inactive: [1] 103 % of control | [2] 93 % of control | [3] 97 % of control | [4] 100 % of control | [5] 101 % of control

CCCS(=O)(=O)N1CC(C)OC(C)C1 (centres undefined)
inactive: [22] 91 % of control | [23] 91 % of control | [24] 89 % of control

Nc1ccc(NS(=O)(=O)CS(=O)(=O)Nc2ccc(N)cc2)cc1
inactive: dose: 10.0 mg/kg/injection, schedule: Q01DX001 (ip), vehicle: saline 96 % of control | dose: 20.0 mg/kg/injection, schedule: Q01DX001 (ip), vehicle: saline 101 % of control | dose: 40.0 mg/kg/injection, schedule: Q01DX001 (ip), vehicle: saline 101 % of control

CSc1ccc(OC(=O)Nc2cccc(Cl)c2)cc1
inactive: [7] 100 % of control | [9] 93 % of control | [11] 104 % of control

CC[C@H]1CN2CCc3cc(OC)c(OC)cc3[C@@H]2C[C@@H]1C[C@@H]1c2cc(OC)c(OC)cc2CCN1N=O
inactive: [2] 100 % of control

O=C(Nc1ccc(F)cc1)Nc1ccc(Cl)cc1
inactive: [25] 86 % of control | [26] 86 % of control | [27] 87 % of control

O=C(O)c1cnc(Cl)c([N+](=O)[O-])c1
inactive: [25] 96 % of control | [26] 89 % of control

CCSC(SCC)C(NC(C)=O)C1OC(C)(C)OC1C(O)CO (centres undefined)
inactive: dose: 50.0 mg/kg/injection, schedule: Q01DX001 (ip), vehicle: saline 97 % of control | [14] 103 % of control | [15] 103 % of control | [16] 103 % of control

CC(C)CCCC(C)C1CCC2C3=CC=C4CC(OC(=O)c5cc([N+](=O)[O-])cc([N+](=O)[O-])c5)CCC4(C)C3CCC21C (centres undefined)
inactive: [12] 88 % of control | [13] 98 % of control

NC(CSS(=O)(=O)O)=NCCCOCc1ccccc1
inactive: dose: 12.5 mg/kg/injection, schedule: Q04DX002 (ip), vehicle: Klucel (hydroxypropylcellulose) (HPC) 103 % of control | dose: 25.0 mg/kg/injection, schedule: Q04DX002 (ip), vehicle: Klucel (hydroxypropylcellulose) (HPC) 93 % of control

C1=C(c2ccccc2)C(c2ccccc2)c2ccccc21 (centres undefined)
inactive: dose: 12.5 mg/kg/injection, schedule: Q04DX002 (ip), vehicle: saline with Tween-80 90 % of control | dose: 25.0 mg/kg/injection, schedule: Q04DX002 (ip), vehicle: saline with Tween-80 98 % of control | dose: 50.0 mg/kg/injection, schedule: Q04DX002 (ip), vehicle: saline with Tween-80 90 % of control | [27] 90 % of control

— PubChem BioAssay AID248 (DTP/NCI, 2004)
